System: native tau aggregates
Assay: TAU radioligand in vitro displacement assay ([3H]T808 autoradiography on human AD brain sections)
Assay type: binding
Conditions: radioligand [3H]T808 10 nM, 50 mM Tris pH 7.4, room temperature, 30 min; for % displacement of [3H]T808 (10 nM) at 1 uM: compound 1 uM; for % displacement of [3H]T808 (10 nM) at 10 nM: compound 10 nM
Protocol: TAU Radioligand-In-Vitro Displacement Assay
This in vitro binding assay assesses the affinity of compounds for native tau aggregates. The compounds are co-incubated with the well-established tau specific radioligand [^3H]T808 and the compound's displacement potency of [^3H]T808 binding is determined by in vitro autoradiography using human Alzheimer's disease (AD) brain sections (FIG. 1).
AD human brains are purchased from Banner Sun Health Research Institute (Sun City, Ariz., USA). Pathological diagnosis of AD is made according to standard NIA-Reagan Institute criteria based on neuropathological data. The radioligand [^3H]T808 was synthesized in-house ([^3H]-2-[4-(2-Fluoro-ethyl)-piperidin-1-yl]-benzo[4,5]imidazo[1,2-a]pyrimidine, radiochemical purity 99.0%). As a reference cold T808 is used (2-[4-(2-Fluoro-ethyl)-piperidin-1-yl]-benzo[4,5]imidazo[1,2-a]pyrimidine). For the autoradiography FujiFilm Imaging Plates (BAS-IP TR 2025) are exposed to the sections and read with a FujiFilm IP reader (BAS-5000).
Ten μm thick human AD brain sections are generated with a cryostat (Leica CM3050) at −17° C. chamber temperature and −15° C. object temperature. Sections are transferred to Histobond+microscope slides (Marienfeld Laboratory Glasware). After drying for 3 hours at room temperature the sections are stored at −20° C. The sections are incubated with the radioligand (10 nM) and the respective cold compound (at various concentrations) in 50 mM Tris buffer, pH 7.4 at room temperature for 30 min. After washing 3×10 min at 4° C. in 50 mM Tris buffer, pH 7.4 and 3 quick dips in H2O dist. at 4° C. the sections are dried at 4° C. for 3 h. The sections are placed in a FujiFilm Cassette (BAS 2025), exposed with an Imaging Plate for five days and afterwards scanned with a resolution of […].
The signal intensity (Dens—PSL/mm2) in the region of interest (ROI) of the autoradiogram is quantified with the software MCID analysis (version 7.0, Imaging Research Inc.). The specific binding (SB) of [^3H]T808 binding in absence or in presence of a compound is calculated by subtracting the non-specific binding signal in the white matter, thus yielding SB[3H]T808 only and SBcompund. The % displacement by the various compounds is calculated as following: % displacement=100−(SBcompund/SB[3H]T808 only)*100.
In each experiment cold T808 is used as a positive internal control. Co-incubation of equimolar amounts of hot and cold T808 is expected to reduce specific binding by approximately 50%.

SMILES	% displacement of [3H]T808 (10 nM) at 1 uM	% displacement of [3H]T808 (10 nM) at 10 nM
FCCOc1cccc(-c2cn3ccc(N4CCCC4)nc3n2)c1 [Example 17, 2-[3-(2-Fluoroethoxy)phenyl]-7-pyrrolidin-1-ylimidazo[1,2-a]pyrimidine]	76%	–
CN(C)c1ccn2cc(-c3ccccc3)nc2n1 [Example 18, N,N-Dimethyl-2-phenylimidazo[1,2-a]pyrimidin-7-amine]	92%	35%
COc1ccc(-c2cn3ccc(N4CCN(CCF)CC4)nc3n2)cc1.Cl [Example 19, 7-[4-(2-Fluoroethyl)piperazin-1-yl]-2-(4-methoxyphenyl)imidazo[1,2-a]pyrimidine hydrochloride]	74%	–
COc1cccc(-c2cn3ccc(N4CCN(CCF)CC4)nc3n2)c1.Cl [Example 20, 7-[4-(2-Fluoroethyl)piperazin-1-yl]-2-(3-methoxyphenyl)imidazo[1,2-a]pyrimidine hydrochloride]	51%	–
CN(CCF)c1ccn2cc(-c3ccccc3)nc2n1 [Example 21, N-(2-Fluoroethyl)-N-methyl-2-phenylimidazo[1,2-a]pyrimidin-7-amine]	84%	–
COc1cccc(-c2cn3ccc(N(C)CCF)nc3n2)c1 [Example 22, N-(2-Fluoroethyl)-2-(3-methoxyphenyl)-N-methylimidazo[1,2-a]pyrimidin-7-amine]	82%	–
COc1ccc(-c2cn3ccc(N(C)CCF)nc3n2)cc1 [Example 23, N-(2-Fluoroethyl)-2-(4-methoxyphenyl)-N-methylimidazo[1,2-a]pyrimidin-7-amine]	92%	33%
Cl.FCCN1CCN(c2ccn3cc(-c4ccccc4)nc3n2)CC1 [Example 24, 7-[4-(2-Fluoroethyl)piperazin-1-yl]-2-phenylimidazo[1,2-a]pyrimidine hydrochloride]	64%	–
COc1ccc(-c2cn3ccc(N4CCOCC4)nc3n2)cc1 [Example 25, 4-[2-(4-Methoxyphenyl)imidazo[1,2-a]pyrimidin-7-yl]morpholine]	–	16%
Cc1cccc(-c2cn3ccc(N4CCOCC4)nc3n2)c1 [Example 26, 4-[2-(3-Methylphenyl)imidazo[1,2-a]pyrimidin-7-yl]morpholine]	–	13%
COc1ccc(-c2cn3ccc(N4CCOCC4)nc3n2)cc1OC [Example 27, 4-[2-(3,4-Dimethoxyphenyl)imidazo[1,2-a]pyrimidin-7-yl]morpholine]	–	17%
Oc1ccc(-c2cn3ccc(N4CCCC4)nc3n2)cc1 [Example 28, 4-(7-Pyrrolidin-1-ylimidazo[1,2-a]pyrimidin-2-yl)phenol]	–	22%
FCCOc1ccc(-c2cn3ccc(N4CCCC4)nc3n2)cc1 [Example 29, 2-[4-(2-Fluoroethoxy)phenyl]-7-pyrrolidin-1-ylimidazo[1,2-a]pyrimidine]	–	15%
FCOc1ccc(-c2cn3ccc(N4CCCC4)nc3n2)cc1 [Example 30, 2-[4-(Fluoromethoxy)phenyl]-7-pyrrolidin-1-ylimidazo[1,2-a]pyrimidine]	–	9%
CO[C@@H]1CCN(c2ccn3cc(-c4ccccc4)nc3n2)C1 [Example 31, 7-[(3R)-3-Methoxypyrrolidin-1-yl]-2-phenylimidazo[1,2-a]pyrimidine]	–	7%
CO[C@H]1CCN(c2ccn3cc(-c4ccccc4)nc3n2)C1 [Example 32, 7-[(3S)-3-Methoxypyrrolidin-1-yl]-2-phenylimidazo[1,2-a]pyrimidine]	–	13%
COc1ccc(-c2cn3ccc(N4CC[C@@H](F)C4)nc3n2)cc1 [Example 33, 7-[(3R)-3-Fluoropyrrolidin-1-yl]-2-(4-methoxyphenyl)imidazo[1,2-a]pyrimidine]	–	25%
COc1ccc(-c2cn3ccc(N4CC[C@H](F)C4)nc3n2)cc1 [Example 34, 7-[(3 S)-3-Fluoropyrrolidin-1-yl]-2-(4-methoxyphenyl)imidazo[1,2-a]pyrimidine]	–	15%
COc1cccc(-c2cn3ccc(N(C)C)nc3n2)c1 [Example 35, 2-(3-Methoxyphenyl)-N,N-dimethylimidazo[1,2-a]pyrimidin-7-amine]	–	34%

SMILES	% displacement of [3H]T808 (10 nM) at 1 uM	% displacement of [3H]T808 (10 nM) at 10 nM
COc1ccc(-c2cn3ccc(N(C)C)nc3n2)cc1 [Example 36, 2-(4-Methoxyphenyl)-N,N-dimethylimidazo[1,2-a]pyrimidin-7-amine]	–	47%
CN(C)c1ccn2cc(-c3ccc4c(c3)OCO4)nc2n1 [Example 37, 2-(1,3-Benzodioxol-5-yl)-N,N-dimethylimidazo[1,2-a]pyrimidin-7-amine]	–	46%
CN(C)c1ccn2cc(-c3ccc4c(c3)OCCO4)nc2n1 [Example 38, 2-(2,3-Dihydro-1,4-benzodioxin-6-yl)-N,N-dimethylimidazo[1,2-a]pyrimidin-7-amine]	–	37%
Cc1ccc(-c2cn3ccc(N(C)C)nc3n2)cc1 [Example 39, N,N-Dimethyl-2-(4-methylphenyl)imidazo[1,2-a]pyrimidin-7-amine]	–	49%
Cc1cccc(-c2cn3ccc(N(C)C)nc3n2)c1 [Example 40, N,N-Dimethyl-2-(3-methylphenyl)imidazo[1,2-a]pyrimidin-7-amine]	–	51%
COc1cccc(-c2cn3ccc(N4CCOCC4)nc3n2)c1 [Example 41, 4-[2-(3-Methoxyphenyl)imidazo[1,2-a]pyrimidin-7-yl]morpholine]	–	16%
Cc1ccc(-c2cn3ccc(N4CCOCC4)nc3n2)cc1 [Example 42, 4-[2-(4-Methylphenyl)imidazo[1,2-a]pyrimidin-7-yl]morpholine]	–	8%
COc1ccc(-c2cn3ccc(N4CCCC4)nc3n2)cc1 [Example 43, 2-(4-Methoxyphenyl)-7-pyrrolidin-1-ylimidazo[1,2-a]pyrimidine]	–	29%
Cc1ccc(-c2cn3ccc(N4CCCC4)nc3n2)cc1 [Example 44, 2-(4-Methylphenyl)-7-pyrrolidin-1-ylimidazo[1,2-a]pyrimidine]	–	28%
CN(C)c1ccn2cc(-c3ccc(N4CCOCC4)cc3)nc2n1 [Example 45, N,N-Dimethyl-2-(4-morpholin-4-ylphenyl)imidazo[1,2-a]pyrimidin-7-amine]	–	29%
CN(C)c1ccc(-c2cn3ccc(N(C)C)nc3n2)cc1 [Example 46, 2-[4-(Dimethylamino)phenyl]-N,N-dimethylimidazo[1,2-a]pyrimidin-7-amine]	–	43%
COc1cccc(-c2cn3ccc(N4CCCC4)nc3n2)c1 [Example 47, 2-(3-Methoxyphenyl)-7-pyrrolidin-1-ylimidazo[1,2-a]pyrimidine]	–	20%
Cc1cccc(-c2cn3ccc(N4CCCC4)nc3n2)c1 [Example 48, 2-(3-Methylphenyl)-7-pyrrolidin-1-ylimidazo[1,2-a]pyrimidine]	–	23%
COc1ccc(-c2cn3ccc(N4CCCCC4)nc3n2)cc1 [Example 49, 2-(4-Methoxyphenyl)-7-piperidin-1-ylimidazo[1,2-a]pyrimidine]	–	17%
COc1cccc(-c2cn3ccc(N4CCCCC4)nc3n2)c1 [Example 50, 2-(3-Methoxyphenyl)-7-piperidin-1-ylimidazo[1,2-a]pyrimidine]	–	14%
Cc1ccc(-c2cn3ccc(N4CCCCC4)nc3n2)cc1 [Example 51, 2-(4-Methylphenyl)-7-piperidin-1-ylimidazo[1,2-a]pyrimidine]	–	8%
Cc1cccc(-c2cn3ccc(N4CCCCC4)nc3n2)c1 [Example 52, 2-(3-Methylphenyl)-7-piperidin-1-ylimidazo[1,2-a]pyrimidine]	–	14%
COc1ccc(-c2cn3ccc(N4CCCCC4)nc3n2)cc1OC [Example 53, 2-(3,4-Dimethoxyphenyl)-7-piperidin-1-ylimidazo[1,2-a]pyrimidine]	–	6%

Source: patent US9801961B2, “2-phenylimidazo[1,2-a]pyrimidines as imaging agents” (Hoffmann-La Roche Inc., priority 2013, dated 2017)
